# Patent US20130089601A1, “METHOD FOR TREATING ATHEROSCLEROSIS” (KAOHSIUNG MEDICAL UNIVERSITY, priority 2009, published 2013)
# Assays:
# VSMC cells = experiment: Chemotactic migration of VSMC (Transwell); assay type: cell-based, human; conditions: 100 nM for 24 hours, ox-LDL 40 μg/ml
# Procedure: Chemotactic migration is another characteristic of atherosclerosis and can be used as another line of evidence of atherosclerotic change for the cultured VSMC cells. This experiment was assayed by using a microchemotactic chamber and polycarbonate filters with pores of […] in diameter (Transwell, Millipore). After incubated with microRNA-195 (Pre-miR miRNA, hsa-miR-195 (product ID PM10827), Ambion Inc.) (100 nM) or an inhibitor (100 nM) for 24 hours, the VSMC cells were trypsinized and suspended with a serum free medium. A volume (300 μl) of a 1×10^4 cell suspension was placed in the upper chamber, the medium containing ox-LDL (40 μg/ml, each) was placed in the lower and upper chamber. The cell suspension was incubated at a temperature of 37° C. under 5% CO2 in air for 24 hours. After incubation, the VSMC cells on the upper side of the filter were scraped off, and the cells that had directly migrated to the lower side of the filter were trypsinized. The cells were fixed with methanol and stained with a Giemsa solution (Merck). Quantification of chemotactic migration was performed using the hemocytometer.
# MCP-1 = MCP-1 secreted from VSMC, sandwich enzyme immunoassay; assay type: cell-based, human
# Procedure: Monocyte chemotactic protein-1 (MCP-1) is a well established atherosclerotic biomarker and it was examined to further test for the influence of microRNA-195 on the atherogenic biomarker. VSMC cells in six-well plates were grown to confluence and then cultivated in a serum-free medium for 24 hours before the experiment. After transfection of microRNA-195 for 24 hours, the cells were further incubated with ox-LDL and simvastatin for another 24 hours. The supernatants of the conditioned medium were collected and frozen at −70° C. The culture supernatants were analyzed to determine the MCP-1 using Sandwich Enzyme Immunoassay kits (BD Biosciences) according to the manufacturer protocol.
# apoE−/− mice = test system: apoE−/− mice
# Description: Lentivector Expression System was purchased from System Biosciences. The microRNA expression vectors pCDH-CMV-MCS-EF1- GreenPuro vector (System Biosciences, SBI) contain a CMV-driven EGFP reporter. The full length sequence of microRNA-195 was amplified from genomic DNA by polymerase chain reaction (PCR). Primer pairs for microRNA expression vectors were microRNA-195 forward: 5′-[…]-3′ (SEQ ID NO: 3), and reverse: 5′-[…]-3′ (SEQ ID NO: 4). The PCR products were inserted to the microRNA expression vectors. The clones carrying microRNA-195 was named pCDH-miR-195. The pCDH vector was used as control.
# The miRNA expression vectors (pCDH-miR-195 and pCDH mock vector) and Lentivirus Package plasmid mix (System Biosciences, SBI) were cotransfected into 293TN cells with PureFection™ Transfection Reagent (System Biosciences; Mountain View, Calif., USA), and Lenti-X Concentrator (Clontech, USA) was used for concentration. Infectious titers were determined by counting GFP positive-293T cells using a fluorescence microscope.
# 0.1 ml PBS with 10^7 IFU Lentivirus containing pCDH-miR-195 or a control vector was injected to the tail veil of the apoE−/− mice that were under a high fat diet. The injection was repeated once a week for a total of 12 weeks. Changes in body weight of the apoE−/− mice treated with Lentivirus containing pCDH-miR-195 (the microRNA-195 treatment group) and the apoE−/− mice treated with Lentivirus containing the control vector (the control group) were recorded every week and are shown in FIG. 7. When the experiment was completed, the mice of the microRNA-195 treatment group and the mice of the control group were sacrificed.
# Biochemical indexes, such as blood urea nitrogen (BUN) and creatinine (CRE) for renal function, GOT (AST) and GPT (ALT) for liver function, fasting blood sugar (GLU), total cholesterol (T-CHO), high density lipoprotein (HDL), low density lipoprotein (LDL) and triglyceride (TG) of the blood of mice of the microRNA-195 treatment group and mice of the control group were determined and are shown in Table 2, respectively. Indexes for weight of various organs to body weight (organ weight/body weight) of mice of the microRNA-195 treatment group and the mice of the control group were determined and are shown in Table 3, respectively.
# TNF-a = experiment: Real-time qPCR of TNF-a mRNA in HUVECs co-cultured with transfected HASMCs; assay type: cell-based, human; conditions: co-cultured with microRNA-195-transfected HASMCs
# Procedure: (§1) HASMCs were transfected with negative control microRNA or microRNA-195 with or without the presence of oxLDL. MicroRNA-195-transfected HASMCs were co-cultured with HUVEC. Real-time qPCR analysis of mRNA levels for genes surrogating endothelial functions as well as atherosclerosis, such as vascular cell adhesion molecule-1 (VCAM-1), […] (TNF-a) and interleukin-6 (IL-6), and vasodilation gene, endothelial nitric oxide synthase (eNOS), were determined in HUVECs.
# IL-6 = experiment: Real-time qPCR of IL-6 mRNA in HUVECs co-cultured with transfected HASMCs; assay type: cell-based, human; conditions: co-cultured with microRNA-195-transfected HASMCs
# Procedure: as §1
# eNOS = experiment: Real-time qPCR of eNOS mRNA in HUVECs co-cultured with transfected HASMCs; assay type: cell-based, human; conditions: co-cultured with microRNA-195-transfected HASMCs
# Procedure: as §1
# [1] = Lentivirus containing pCDH-miR-195, 12 weeks, high fat diet
# [2] = Lentivirus containing pCDH-miR-195 vs control group, from Table 2
# [3] = blood, Lentivirus containing pCDH-miR-195 10^7 IFU tail vein weekly, 12 weeks, high fat diet
substance,measurement,setting,value
"microRNA-195: Pre-miR miRNA, hsa-miR-195 (product ID PM10827), Ambion Inc., which mimics precursor for mature human miR-195; mimic 5′-UAGCAGCACAGAAAUAUUGGC-3′ (SEQ ID NO: 5) (chemistry not given here)","chemotactic migration, percentage of migrated cells compared to control medium cells",VSMC cells,137.6%
same,effect on reducing the atherogenic biomarker (MCP-1) compared with simvastatin,MCP-1; ox-LDL stimulation,stronger effect
same,MCP-1 levels,"MCP-1; transfection 24 hours then ox-LDL 24 hours, culture supernatant",significantly decrease
same,"Heart weight/body weight, average",apoE−/− mice; [1],0.49%
same,"Kidney weight/body weight, average",apoE−/− mice; [1],1.20%
same,"Liver weight/body weight, average",apoE−/− mice; [1],3.35%
same,"Lung weight/body weight, average",apoE−/− mice; [1],0.72%
same,"Spleen weight/body weight, average",apoE−/− mice; [1],0.32%
same,HDL increase,apoE−/− mice; [2],77%
same,triglyceride decrease,apoE−/− mice; [2],26%
same,blood sugar level versus placebo treated animals,"apoE−/− mice; Lentivirus containing pCDH-miR-195 vs control vector, high-fat diet",lower
same,control of the increase of body weight,"apoE−/− mice; Lentivirus containing pCDH-miR-195 vs control vector, high-fat diet, 12 weeks",better than the placebo
same,"BUN (blood urea nitrogen), average",apoE−/− mice; [3],21.5
same,"CRE (creatinine), average",apoE−/− mice; [3],0.7
same,"GLU (fasting blood sugar), average",apoE−/− mice; [3],166.5
same,"GOT (AST), average",apoE−/− mice; [3],118.5
same,"GPT (ALT), average",apoE−/− mice; [3],28.5
same,"HDL (high density lipoprotein), average",apoE−/− mice; [3],11.5
same,"T-CHO (total cholesterol), average",apoE−/− mice; [3],711.5
same,"TG (triglyceride), average",apoE−/− mice; [3],141
same,TNF-a mRNA level in HUVECs,TNF-a,suppresses
same,IL-6 mRNA level in HUVECs,IL-6,suppresses
same,eNOS mRNA level in HUVECs,eNOS,increases
